These are literature values, as cited in US7763563B2, “Niobium compounds and hydrates thereof, formulations containing the same, and methods of providing specifications therefor” (H. C. Starck GmbH, priority 2006, dated 2010).

The conditions of this data set: prior art compounds, Limar et al.

With (NH4)3[Nb(O)(C2O4)3]*x H2O, the water solubility is on record as 40 g Nb/1.
